For one assay, the target named is T1, human CYP11B2 (Homo sapiens, UniProt P19099).
T1 construct: expressed in transfected cells
T1 sequence (P19099 25-503): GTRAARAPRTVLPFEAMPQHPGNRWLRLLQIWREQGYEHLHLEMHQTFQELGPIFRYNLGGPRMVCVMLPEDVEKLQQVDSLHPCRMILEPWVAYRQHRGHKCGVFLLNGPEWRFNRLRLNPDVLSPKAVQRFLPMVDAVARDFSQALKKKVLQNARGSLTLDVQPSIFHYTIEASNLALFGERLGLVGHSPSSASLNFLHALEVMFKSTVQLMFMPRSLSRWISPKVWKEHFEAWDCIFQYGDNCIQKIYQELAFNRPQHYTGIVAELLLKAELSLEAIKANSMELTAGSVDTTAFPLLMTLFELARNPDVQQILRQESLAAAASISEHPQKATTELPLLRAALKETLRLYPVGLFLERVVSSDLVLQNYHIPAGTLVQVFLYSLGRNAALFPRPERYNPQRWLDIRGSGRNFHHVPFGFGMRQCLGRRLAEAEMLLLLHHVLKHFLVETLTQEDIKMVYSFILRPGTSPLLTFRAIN
Description: G-402 cellular enzyme assay, human CYP11B2 (aldosterone release, HTRF). The assay is classed as cell-based. The conditions noted are these: G-402 cells, 1 μM Deoxycorticosterone. A digest of the protocol: (§1)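 Cellular format in stably transfected G-402 cells over 16 h. HTRF quantified aldosterone (CYP11B2, 1 μM deoxycorticosterone substrate) or cortisol (CYP11B1, 1 μM deoxycortisol substrate); EC50 obtained by fitting a 4-parameter sigmoid to dose–response data.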

For a further assay, the target named is T2, human CYP11B1 (Homo sapiens, UniProt P15538).
T2 construct: expressed in transfected cells
T2 sequence (P15538 25-503): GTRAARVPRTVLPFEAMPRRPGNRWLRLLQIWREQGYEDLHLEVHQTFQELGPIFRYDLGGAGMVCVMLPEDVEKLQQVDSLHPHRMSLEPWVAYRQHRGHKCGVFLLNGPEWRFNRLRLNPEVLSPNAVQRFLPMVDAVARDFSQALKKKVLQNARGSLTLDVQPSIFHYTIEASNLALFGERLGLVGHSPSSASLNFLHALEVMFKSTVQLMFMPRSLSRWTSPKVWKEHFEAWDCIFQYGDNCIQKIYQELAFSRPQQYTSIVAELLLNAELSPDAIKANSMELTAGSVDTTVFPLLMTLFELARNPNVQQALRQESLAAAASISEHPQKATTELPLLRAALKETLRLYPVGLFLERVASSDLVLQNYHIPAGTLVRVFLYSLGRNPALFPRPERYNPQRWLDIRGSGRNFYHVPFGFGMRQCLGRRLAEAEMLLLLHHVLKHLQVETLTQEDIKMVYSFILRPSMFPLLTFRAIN
Nature of the assay: G-402 cellular enzyme assay, human CYP11B1 (cortisol release, HTRF). The assay is classed as cell-based. The conditions noted are these: G-402 cells, 1 μM Deoxycortisol. A digest of the protocol:
as §1

Molecules are shown by their SMILES.

One may read the EC50 as the midpoint of the concentration-response curve. The low end stands for higher potency in that assay, the high end for lower potency in that assay.

As for `CC(O)(c1cncc(N2CCc3cc(Cl)ccc3C2=O)c1)c1ccc(F)c(F)c1` (stereo not drawn) [Example 36, 6-Chloro-2-{5-[1-(3,4-difluoro-phenyl)-1-hydroxy-ethyl]-pyridin-3-yl}-3,4-dihydro-2H-isoquinolin-1-one], the EC50 came out at 14 nM on human CYP11B2 and 188 nM at human CYP11B1.
The matching figures for `CC(=O)NCc1cncc(N2CCc3cc(Cl)ccc3C2=O)c1` [Example 153, N-[5-(6-Chloro-1-oxo-3,4-dihydro-1H-isoquinolin-2-yl)-pyridin-3-ylmethyl]-acetamide]: 302 nM and 15000 nM.
`CC(=O)N[C@@H]1CCCc2c1cncc2N1C(=O)c2ccc(Cl)cc2[C@H]1C1CC1` (single isomer, unassigned) [Example 372, N-[(R or S)-4-((R or S)-5-Chloro-3-cyclopropyl-1-oxo-1,3-dihydro-isoindol-2-yl)-5,6,7,8-tetrahydro-isoquinolin-8-yl]-acetamide]: the results for the concentration for a half-maximal effect (EC50) at human CYP11B2 and on human CYP11B1 were 100 nM and 22800 nM, respectively.
`O=C1c2cc(F)c(Cl)cc2CCN1c1cccnc1` [Example 101, 6-Chloro-7-fluoro-2-pyridin-3-yl-3,4-dihydro-2H-isoquinolin-1-one]: the EC50 on human CYP11B2 stood at 104 nM; on human CYP11B1 it was 3540 nM.
Consider `O=C1c2ccc(Cl)cc2CCN1c1cncc(Cn2ccnc2CO)c1` [Example 163, 6-Chloro-2-[5-(2-hydroxymethyl-imidazol-1-ylmethyl)-pyridin-3-yl]-3,4-dihydro-2H-isoquinolin-1-one], for which the EC50 at human CYP11B2 turned out to be 215 nM; at human CYP11B1 it was 3360 nM.
As to `CC(C)c1nccn1Cc1cncc(N2CCc3cc(Cl)ccc3C2=O)c1` [Example 141, 6-Chloro-2-[5-(2-isopropyl-imidazol-1-ylmethyl)-pyridin-3-yl]-3,4-dihydro-2H-isoquinolin-1-one], the EC50 at human CYP11B2 is 40.5 nM; on human CYP11B1 it was 1310 nM.
Regarding `CC(c1cncc(N2CCc3cc(Cl)ccc3C2=O)c1)N(C)C` (stereo not drawn) [Example 266, 6-Chloro-2-[5-(1-dimethylamino-ethyl)-pyridin-3-yl]-3,4-dihydro-2H-isoquinolin-1-one], the results for the EC50 at human CYP11B2 and at human CYP11B1 were 44.4 nM and 276 nM, respectively.
Turning to `CCc1ccc(C(O)c2cncc(N3CCc4cc(Cl)ccc4C3=O)c2)cc1` (stereo not drawn) [Example 33, 6-Chloro-2-{5-[(4-ethyl-phenyl)-hydroxy-methyl]-pyridin-3-yl}-3,4-dihydro-2H-isoquinolin-1-one], the EC50 on human CYP11B2 came to 210 nM; at human CYP11B1, 485 nM.
The matching figures for `COCc1cncc(N2CCc3cc(Cl)ccc3C2=O)c1` [Example 193, 6-Chloro-2-(5-methoxymethyl-pyridin-3-yl)-3,4-dihydro-2H-isoquinolin-1-one]: 20.1 nM and 217 nM.
On to `O=C1c2ccc(Cl)cc2CCN1c1cncc(CN2CCC[C@@H]2CO)c1` [Example 150, 6-Chloro-2-[5-((R)-2-hydroxymethyl-pyrrolidin-1-ylmethyl)-pyridin-3-yl]-3,4-dihydro-2H-isoquinolin-1-one], for which the results for the EC50 at human CYP11B2 and at human CYP11B1 were 227 nM and 5320 nM, respectively.
In the case of `O=C1c2ccc(Cl)cc2CCN1c1cncc(-c2ccccc2C(F)(F)F)c1` [Example 242, 6-Chloro-2-[5-(2-trifluoromethyl-phenyl)-pyridin-3-yl]-3,4-dihydro-2H-isoquinolin-1-one], the EC50 on human CYP11B2 came to 25.6 nM; on human CYP11B1, 206 nM.
The matching figures for `O=C1CCCCN1Cc1cncc(N2CCc3cc(Cl)ccc3C2=O)c1` [Example 173, 6-Chloro-2-[5-(2-oxo-piperidin-1-ylmethyl)-pyridin-3-yl]-3,4-dihydro-2H-isoquinolin-1-one]: 334 nM and 12300 nM.
Regarding `O=C1c2ccc(Cl)cc2CCN1c1cncc(C2CC2)c1` [Example 66, 6-Chloro-2-(5-cyclopropyl-pyridin-3-yl)-3,4-dihydro-2H-isoquinolin-1-one], the EC50 on human CYP11B2 is 6.9 nM; at human CYP11B1 it was 69.7 nM.
Taken in the same sequence, the figures for `CC1(C)c2nc(Cl)ccc2C(=O)N1c1cncc(F)c1` [Example 292, 2-Chloro-6-(5-fluoro-pyridin-3-yl)-7,7-dimethyl-6,7-dihydro-pyrrolo[3,4-b]pyridin-5-one] were 515 nM and 36200 nM.
Taken in the same sequence, the figures for `O=C1c2ccc(Cl)cc2CCN1c1cncc(N2CCC[C@H]2CO)c1` [Example 135, 6-Chloro-2-[5-((S)-2-hydroxymethyl-pyrrolidin-1-yl)-pyridin-3-yl]-3,4-dihydro-2H-isoquinolin-1-one] were 93.1 nM and 523 nM.
The matching figures for `CC1(C)c2nc(Cl)ccc2C(=O)N1c1cncc(OC(F)F)c1` [Example 293, 2-Chloro-6-(5-difluoromethoxy-pyridin-3-yl)-7,7-dimethyl-6,7-dihydro-pyrrolo[3,4-b]pyridin-5-one]: 16.4 nM and 285 nM.
Turning to `O=C1NCCN1Cc1cncc(N2CCc3cc(Cl)ccc3C2=O)c1` [Example 158, 6-Chloro-2-[5-(2-oxo-imidazolidin-1-ylmethyl)-pyridin-3-yl]-3,4-dihydro-2H-isoquinolin-1-one], the EC50 on human CYP11B2 turned out to be 182 nM; on human CYP11B1, 6030 nM.
For the molecule `CC1CN(c2cccnc2)C(=O)c2ccc(Cl)cc21` (stereo not drawn) [Example 105, 6-Chloro-4-methyl-2-pyridin-3-yl-3,4-dihydro-2H-isoquinolin-1-one], the EC50 at human CYP11B2 worked out at 382 nM; at human CYP11B1 it was 4490 nM.
Taken in the same sequence, the figures for `O=C1c2ccc(Cl)cc2C(C2CC2)N1c1cncc(F)c1` (stereo not drawn) [Example 297, 5-Chloro-3-cyclopropyl-2-(5-fluoro-pyridin-3-yl)-2,3-dihydro-isoindol-1-one] were 207 nM and 12800 nM.
Turning to `CC1(C)c2ccc(F)cc2C(=O)N1c1cncc(CNS(C)(=O)=O)c1` [Example 406, N-[5-(5-Fluoro-1,1-dimethyl-3-oxo-1,3-dihydro-isoindol-2-yl)-pyridin-3-ylmethyl]-methane-sulfonamide], the EC50 at human CYP11B2 was 165 nM; on human CYP11B1, 3150 nM.
`CCC(=O)N[C@H]1CCCc2c1cncc2N1C(=O)c2ccc(Cl)cc2[C@H]1C` (single isomer, unassigned) [Example 360, N-[(S or R)-4-((R or S)-5-Chloro-3-methyl-1-oxo-1,3-dihydro-isoindol-2-yl)-5,6,7,8-tetrahydro-isoquinolin-8-yl]-propionamide]: the figures for the half-maximal effective concentration (EC50) on human CYP11B2 and on human CYP11B1 were 853 nM and 16100 nM, respectively.
The matching figures for `O=C1c2ccc(Cl)cc2CCN1c1cncc(CNc2ccc(Cl)cc2)c1` [Example 260, 6-Chloro-2-{5-[(4-chloro-phenylamino)-methyl]-pyridin-3-yl}-3,4-dihydro-2H-isoquinolin-1-one]: 471 nM and 345 nM.
As to `CCC1c2cc(Cl)ccc2C(=O)N1c1cncc(C(C)O)c1` (stereo not drawn) [Example 283, 5-Chloro-3-ethyl-2-[5-(1-hydroxy-ethyl)-pyridin-3-yl]-2,3-dihydro-isoindol-1-one], the EC50 on human CYP11B2 was 66.7 nM; at human CYP11B1, 633 nM.
The matching figures for `O=C1c2ccc(Cl)cc2CCN1c1cncc(C(O)c2ccccc2)c1` (stereo not drawn) [Example 34, 6-Chloro-2-[5-(hydroxy-phenyl-methyl)-pyridin-3-yl]-3,4-dihydro-2H-isoquinolin-1-one]: 31.6 nM and 287 nM.

The record behind these values is patent publication US9133158B2, “Bicyclic dihydroisoquinoline-1-one derivatives” (Hoffmann-La Roche Inc., priority 2011, dated 2015).
